Structures can show the parent of a compound that is named as a salt.
Key:
Format in all cases: in vivo
vertebral arteria = assay: Variation of the hematic flow at the vertebral arteria after i.v. administration (cerebral vasodilating activity); conditions: anestetized dog, i.v. (femoral vein) 5 mg/kg, left vertebral arteria, electromagnetic flowmeters
Description: The cerebral vasodilating activity was studied in the anestetized dog, by measuring, by means of Statham periarterial electromagnetic flowmeters, the hematic flow at the level of the vertebral arteria which, in such animal species, constitutes the greatest blood supply to the brain.
The results are reported in the TABLE as the percent variations of the flow measured at the level of the left vertebral arteria after the administration of the several compounds to be tested to groups of 4 animals for each compound. The results also confirm that the compounds of the invention are all endowed with a vasodilating activity at the level of the cerebral circulus. Such an action for some compounds is more relevant with respect to that of vincamine and of apovincamine.

[1] = Acute toxicity per intraperitoneal route (LD50, method of Litchfield and Wilcoxon; Gleason classification); conditions: in vivo, ip; Swiss male mouse, suspension in 1% carboxymethylcellulose, observation 8 days
Description: (§1) The acute toxicity was assessed in the mouse of the Swiss type, having an average body weight of 20 g and of male sex, groups of 5 animals being used, according to the method of Litchfield and Wilcoxon (observation time: 8 days). The compounds were administered as a suspension in 1% carboxymethylcellulose.
(§2) The acute toxicity was low for all the examined compounds, as confirmed by the following table, in which those of the vincamine HCl and of the apovincamine are also reported.
(§3) In fact, for all the compounds, the toxicity, when evaluated according to the method of Gleason, can be classified as light, modest or negligible.

mouse of the Swiss type = assay: as above; conditions: Gleason toxicity class, mouse i.p.
Description: as §1, §2, §3

[2] = Absorption: hematic levels at different times from the oral administration; conditions: blood, 100 mg/kg expressed as vincamine and apovincamine, suspension in 5% carboxymethyl cellulose, chromatographic method, read-out: max. conc. time (converted)
Description: All the compounds have been orally administered at the dosage of 100 mg/kg, expressed as vincamine and apovincamine, in form of a suspension in a 5% carboxymethyl cellulose solution.
The absorption was determined by evaluating the hematic levels at the following times (minutes): 0, 30, 120, 240, 480, 10 hours and 12 hours, at which it was possible to assess the time, from the administration, of the maximum hematic concentration.
The vincamine and apovincamine concentrations were assessed by chromatographic method.
For the evaluation of the prolonged action the following criterium was adopted; as derivatives having a long-acting effect, there are considered those which, 120 minutes after the administration, show hematic levels higher than those obtained with vincamine and apovincamine.

SMILES | Percent variations of the hematic flow at the vertebral arteria (vertebral arteria) | LD50 at 192 h [1] [mg/kg] | Tox (Gleason) (mouse of the Swiss type) | Tmax [2] [min]
CC[C@]12CCCN3CC(O)c4c(n(c5ccccc45)C(O)(C(=O)OC)C1)[C@@H]32 (some centres unmarked) [6-hydroxyvincamine] | +33.4% | 900 | modest | –
CC[C@]12CCCN3CCc4c(n(c5ccccc45)[C@@](O)(C(=O)OC)C1)[C@@H]32 [Vincamine HCl, reference compound] | +24.1% | 800 | modest | 20
CC[C@]12CCCN3CC(=O)c4c(n(c5ccccc45)C(=O)C1)[C@@H]32 [6-ketovincamone] | +30.2% | > 2000 | – | –
CC[C@]12CCCN3CC(=O)c4c(n(c5ccccc45)[C@](O)(C(=O)OC)C1)[C@@H]32 [6-keto-16-epivincamine] | +35.7% | > 2000 | negligible | –
CC[C@@]12C=C(C(=O)OC)n3c4c(c5ccccc53)C(=O)CN(CCC1)[C@H]42 [6-ketoapovincamine] | +29.2% | > 2000 | – | –
CC[C@]12CCCN3CC(=O)c4c(n(c5ccccc45)[C@@](O)(C(=O)OC)C1)[C@@H]32 [6-ketovincamine] | +28.4% | > 2000 | – | –
CC[C@@]12C=C(C(=O)OC)n3c4c(c5ccccc53)CCN(CCC1)[C@H]42 [Apovincamine, reference compound] | +25.6% | > 2000 | negligible | 60
CC[C@]12CCCN3CC(=O)c4c(n(c5ccccc45)C(O)(CO)C1)[C@@H]32 (some centres unmarked) [6-ketovincaminol] | +30.2% | 1500 | light | –

From patent US4140777A, “Cerebral vasodilating 6-substituted vincamines” (Enrico Corvi Mora, priority 1976, dated 1979)
